Measured values as given in article PMC5397431, “Multigeneration toxicity of imidacloprid and thiacloprid to Folsomia candida” (Ecotoxicology (London, England), 2017).
Values joined by “and” are separate entries in the source; they are usually repeats but may differ in a detail not shown here. Equal entries are not always repeated. Where two headings read alike, the source gives them in different places.

Legend:
Aphis gossypii = test system: Aphis gossypii; set-up: method as in Shi et al. (2011); conditions: exposed dermally for 48 h; ref Shi et al. (2011); cited from earlier work
[1] = Chemical analysis of concentrations in test soil (LC-MS) and degradation half-life (DT50); type: physicochemical
Description: Soil samples for chemical analysis of imidacloprid and thiacloprid in the test soil were taken at the start of the exposure of each new generation.
The analytical method to determine actual imidacloprid and thiacloprid concentrations in the test soils followed the principles of the QuEChERS extraction method modified from Anastasiades et al. ([2003]) and Payá et al. ([2007]). Briefly, the procedure used was as follows: approx. 1 g moist soil was taken for low concentration treatments (<1 mg/kg), and 50 µL internal standard (Imidacloprid-d4 and Thiacloprid-d4, 250 µg/L) was added. The sample was shaken for 20 min at 250 rpm with 2 mL methanol and centrifuged for 3 min at 1500 rpm. The methanol phase was passed through a granular Na2SO4 column, evaporated till dryness and the residue taken up in 3 mL acetonitrile. For high concentration samples (>1 mg/kg), the soil was first shaken with methanol and centrifuged. Subsequently an aliquot of 100 µL was taken and together with 50 µL internal standard (Imidacloprid-d4 and Thiacloprid-d4, 250 µg/L) added to 1 mL methanol, passed through a granular Na2SO4 column, evaporated to dryness and taken up in 3 mL acetonitrile. For clean-up, the acetonitrile extract was added to a tube filled with Supel QuE (C18 150 mg, PSA 150 mg, MgSO4 900 mg, Sigma Aldrich), shaken by hand for 2 min and centrifuged for 3 min at 3000 rpm. The supernatant was evaporated till dryness under gentle nitrogen stream and the residue taken up in 200 µL of a water-methanol (9/1) mixture.
Extracts were analyzed using LC-MS and quantified by isotope dilution (imidacloprid-d4 and thiacloprid-d4). The neonicotinoids were separated on a 100 × 2.1 mm, 2.6 µm Kinetex XB-C18 column (Phenomenex), applying a gradient of 5 mM ammonium formate pH 4 buffer and methanol, at a flow rate of 0.3 mL/min. The LC system (Agilent 1200 series) was coupled to a 6410 triple quadrupole MS (Agilent) using electrospray ionization (ESI) with data acquisition in positive ion mode. The transitions for imidacloprid were 256.1 > 175/209 (quantifier/qualifier) and for imidacloprid-d4 260 > 179. For thiacloprid the transitions were253.1 > 126/90 (quantifier/qualifier) with 257 > 126 for thiacloprid-d4.
Using data on the imidacloprid and thiacloprid concentrations measured at different times after spiking the soil in the multigeneration test, half-life (DT50) values were estimated assuming first order degradation kinetics. The equation C = C0 * e^−k*t was fitted to the data, with C = concentration at time t in days, C0 is concentration at t = 0 and k = degradation rate constant (day^−1). DT50 was derived as ln(2) / k.

Folsomia candida [2] = test: Multigeneration toxicity test (survival and reproduction) with springtails in spiked LUFA 2.2 soil; type: in vivo; conditions: for EC50: number of juveniles
Description: F. candida were taken from cultures at the Department of Ecological Science at the Vrije Universiteit in Amsterdam. To obtain age-synchronized animals, adults from the culture were separated in boxes with a layer of plaster of Paris over a period of 2–3 days to lay eggs, after which they were removed. After removal of the adults, the eggs were incubated under a 12 h light/12 h dark regime at 20 °C and 75% relative humidity, where they hatched and grew. Juveniles of 10–12 days old were used for testing.
All tests were performed in the natural standard LUFA 2.2 (Lufa Speyer, Germany), a loamy sand with 1.59 ± 0.13% organic carbon, pH in 0.01 M CaCl2 of 5.4 ± 0.2, and water holding capacity (WHC) of 43.5 ± 2.8% of its dry weight.
Pure imidacloprid and thiacloprid (purity 98%) were kindly provided by Bayer CropScience, Monheim, Germany. Test concentrations of imidacloprid and thiacloprid were based on the results of earlier tests. Stock solution of both compounds in water were prepared, to spike the chemicals into the soil and at the same time bringing moisture content to the desired level of 50% of the WHC. To ensure complete thiacloprid dissolution, a small amount of acetone was added to the stock solution. This stock solution was used to spike soil with the highest test concentration and further diluted for spiking soil with the lower concentrations tested. Considering the low amount of acetone needed to make thiacloprid completely dissolve, no attempts were made to correct for that by adding acetone to the lower concentrations and control in the multigeneration test. All soils were thoroughly mixed to achieve a homogenous distribution of the test chemicals in the test soil.
Multigeneration tests started with a control, […] imidacloprid (0, 0.001, 0.003, 0.01, 0.03, 0.1, 0.3, 1.0 mg/kg dry soil) and 9 thiacloprid concentrations (0, 0.0015, 0.0045, 0.014, 0.041, 0.11, 0.31, 1.1, 3.3, 10.0 mg/kg dry soil). Batches of soil sufficient to perform three toxicity tests were prepared. After filling test jars for the parent generation exposure, the remaining spiked soil was stored in glass jars in a climate room at 20 °C for subsequent exposure of the next two generations. Moisture content of the spiked soil was checked regularly by weighing the jars, and replenished by adding deionized water if needed.
After 28 days (35 days for the second generation), the juveniles from the same exposure concentration were pooled in the same container with a moist plaster of Paris bottom and incubated overnight before being transferred to the next cycle of exposure. This experiment spanned a total of three continuous generations (referred to as F0, F1, and F2).

honeybees = test system: honeybees; set-up: method as in Iwasa et al. (2004); conditions: acute dermal exposure; ref Iwasa et al. (2004); cited from earlier work
Folsomia candida [3] = conditions: cited from earlier work
[4] = F0 generation, 28 days, LUFA 2.2 soil, nominal concentrations
[5] = F1 generation, 35 days, soil spiked at start of F0, nominal concentrations
[6] = F2 generation, 28 days, soil spiked at start of F0, nominal concentrations
[7] = range over the three generations, Lufa 2.2, pure compound, this study
[8] = 28-day exposure, Lufa 2.2, ~3.0% OM, pure, ref De Lima e Silva et al. (submitted)
[9] = artificial soil, 10% OM, based on regression analysis, ref Reynolds (2008)

SMILES: O=[N+]([O-])NC1=NCCN1Cc1ccc(Cl)nc1 [Imidacloprid, imidacloprid]
- times more sensitive than to thiacloprid (Aphis gossypii): about 7.5 times
- concentration, % of the nominal concentration ([1]; LUFA 2.2 soil, after 28 days of incubation at 20 °C, all concentrations analysed): 68.1–83.8%
- recovery, % of the nominal concentration ([1]; LUFA 2.2 soil, start of F0 exposure (T=0)): 77.6–89.9%
- concentration measured in soil ([1]; T=0, nominal 0.01, mean ± SD (n=3)): 0.0078±0.0028 mg/kg dry soil
- concentration measured in soil ([1]; T=0, nominal 0.1, mean ± SD (n=3)): 0.082±0.0018 mg/kg dry soil
- concentration measured in soil ([1]; T=0, nominal 0.3, mean ± SD (n=3)): 0.27±0.014 mg/kg dry soil
- concentration measured in soil ([1]; T=0, nominal 1.0, mean ± SD (n=3)): 0.86±0.022 mg/kg dry soil
- concentration measured in soil ([1]; T=28 d, nominal 0.1, mean ± SD (n=3)): 0.068±0.0025 mg/kg dry soil
- concentration measured in soil ([1]; T=28 d, nominal 0.3, mean ± SD (n=3)): 0.23±0.0092 mg/kg dry soil
- concentration measured in soil ([1]; T=28 d, nominal 1.0, mean ± SD (n=3)): 0.84±0.083 mg/kg dry soil
- half-life ([1]; pH 5.4): ≥ 125 days
- NOEC (Folsomia candida [2]; [4]): 0.1 mg/kg dry soil and 0.10 mg/kg dry soil
- LC50 (Folsomia candida [2]; F0 generation, 28 days, adult survival, LUFA 2.2 soil, nominal concentrations): 0.44 mg/kg dry soil
- EC50 (Folsomia candida [2]; [4]): 0.29 mg/kg dry soil
- EC50 (Folsomia candida [2]; [5]): 0.12 mg/kg dry soil
- LC50 (Folsomia candida [2]; [5]): 0.39 mg/kg dry soil
- NOEC (Folsomia candida [2]; [5]): 0.1 mg/kg dry soil and 0.10 mg/kg dry soil
- EC50 (Folsomia candida [2]; [6]): 0.14 mg/kg dry soil
- LC50 (Folsomia candida [2]; [6]): 0.21 mg/kg dry soil
- NOEC (Folsomia candida [2]; [6]): 0.1 mg/kg dry soil and 0.10 mg/kg dry soil
- EC10 (Folsomia candida [2]; Folsomia candida, in vivo, 35 days, pH 5.4): 0.080 mg/kg dry soil
- EC50, range over generations (Folsomia candida [2]; [7]): 0.12–0.29 mg/kg dry soil
- LC50, range over generations (Folsomia candida [2]; [7]): 0.21–0.44 mg/kg dry soil
- times more toxic than thiacloprid (honeybees): about 800 times
- EC50 (Folsomia candida [3]; [8]): 0.097-0.30 mg/kg dry soil
- LC50 (Folsomia candida [3]; [8]): 0.20-0.65 mg/kg dry soil
- NOEC (Folsomia candida [3]; active substance, ref EFSA (2008)): 1.25 mg/kg dry soil
- EC50 reported by Reynolds (Folsomia candida [3]; [9]): 0.60 mg/kg
- LC50 reported by Reynolds (Folsomia candida [3]; [9]): 1.38 mg/kg
